Common to all, as to test: Receptor Tyrosine Kinase Inhibition Assay
Holding throughout (details): pH 7.5; 23 °C

Experiment [1] concerns the target Receptor tyrosine-protein kinase erbB-2 (Homo sapiens, UniProt P04626). As for the experimental part:
(§1) Assays were performed in 96-well microtiter plates in reaction buffer containing biotinylated substrate, ATP/[gamma-33P]ATP, and purified kinase in the presence of test compounds. Reactions were terminated and transferred to MAPH phosphocellulose filter plates. The scintillation mixture was added to each well, and the assay was quantified by counting in a Packard Topcount (Packard Instrument Co.).

Experiment [2] has as its target Receptor tyrosine-protein kinase erbB-4 (Homo sapiens, UniProt Q15303). As for the experimental part: as §1
In experiment [3] the target is Epidermal growth factor receptor (Homo sapiens, UniProt P00533). As for the experimental part: as §1

For orientation: IC50 means the point on the concentration scale where inhibition reaches its midpoint. Read a high IC50 as weaker potency.

Chain of Receptor tyrosine-protein kinase erbB-2 (P04626 whole entry): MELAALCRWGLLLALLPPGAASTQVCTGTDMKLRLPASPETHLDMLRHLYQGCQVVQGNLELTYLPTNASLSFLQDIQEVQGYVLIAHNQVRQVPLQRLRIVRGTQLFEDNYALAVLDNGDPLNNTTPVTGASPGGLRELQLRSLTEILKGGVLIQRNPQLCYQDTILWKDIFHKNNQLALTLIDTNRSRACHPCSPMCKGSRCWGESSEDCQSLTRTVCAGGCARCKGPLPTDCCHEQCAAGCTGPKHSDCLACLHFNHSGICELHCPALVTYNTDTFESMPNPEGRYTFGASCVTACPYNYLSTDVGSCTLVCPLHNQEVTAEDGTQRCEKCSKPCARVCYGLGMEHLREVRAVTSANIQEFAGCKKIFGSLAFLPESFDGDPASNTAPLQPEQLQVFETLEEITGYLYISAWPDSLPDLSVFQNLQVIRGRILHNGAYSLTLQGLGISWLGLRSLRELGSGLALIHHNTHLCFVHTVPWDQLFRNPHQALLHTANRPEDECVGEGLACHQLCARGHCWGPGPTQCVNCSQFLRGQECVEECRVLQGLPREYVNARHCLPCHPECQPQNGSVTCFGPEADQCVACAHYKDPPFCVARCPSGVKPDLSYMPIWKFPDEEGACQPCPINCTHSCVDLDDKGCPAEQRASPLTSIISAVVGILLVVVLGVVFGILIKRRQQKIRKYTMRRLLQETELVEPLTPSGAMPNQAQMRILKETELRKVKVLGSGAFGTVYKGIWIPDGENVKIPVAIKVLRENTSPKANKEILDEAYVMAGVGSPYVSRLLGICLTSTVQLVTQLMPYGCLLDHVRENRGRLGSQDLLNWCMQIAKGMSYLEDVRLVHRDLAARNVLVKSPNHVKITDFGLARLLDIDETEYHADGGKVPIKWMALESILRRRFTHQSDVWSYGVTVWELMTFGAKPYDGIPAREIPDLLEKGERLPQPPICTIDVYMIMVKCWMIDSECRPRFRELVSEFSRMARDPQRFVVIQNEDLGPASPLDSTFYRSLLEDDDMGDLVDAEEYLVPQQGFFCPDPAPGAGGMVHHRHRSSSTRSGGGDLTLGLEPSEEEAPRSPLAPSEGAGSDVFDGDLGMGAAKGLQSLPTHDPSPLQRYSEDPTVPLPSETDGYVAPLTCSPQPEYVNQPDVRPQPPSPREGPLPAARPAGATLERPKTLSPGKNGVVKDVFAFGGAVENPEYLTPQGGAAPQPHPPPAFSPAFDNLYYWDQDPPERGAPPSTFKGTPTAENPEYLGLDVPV
Chain of Receptor tyrosine-protein kinase erbB-4 (Q15303 whole entry): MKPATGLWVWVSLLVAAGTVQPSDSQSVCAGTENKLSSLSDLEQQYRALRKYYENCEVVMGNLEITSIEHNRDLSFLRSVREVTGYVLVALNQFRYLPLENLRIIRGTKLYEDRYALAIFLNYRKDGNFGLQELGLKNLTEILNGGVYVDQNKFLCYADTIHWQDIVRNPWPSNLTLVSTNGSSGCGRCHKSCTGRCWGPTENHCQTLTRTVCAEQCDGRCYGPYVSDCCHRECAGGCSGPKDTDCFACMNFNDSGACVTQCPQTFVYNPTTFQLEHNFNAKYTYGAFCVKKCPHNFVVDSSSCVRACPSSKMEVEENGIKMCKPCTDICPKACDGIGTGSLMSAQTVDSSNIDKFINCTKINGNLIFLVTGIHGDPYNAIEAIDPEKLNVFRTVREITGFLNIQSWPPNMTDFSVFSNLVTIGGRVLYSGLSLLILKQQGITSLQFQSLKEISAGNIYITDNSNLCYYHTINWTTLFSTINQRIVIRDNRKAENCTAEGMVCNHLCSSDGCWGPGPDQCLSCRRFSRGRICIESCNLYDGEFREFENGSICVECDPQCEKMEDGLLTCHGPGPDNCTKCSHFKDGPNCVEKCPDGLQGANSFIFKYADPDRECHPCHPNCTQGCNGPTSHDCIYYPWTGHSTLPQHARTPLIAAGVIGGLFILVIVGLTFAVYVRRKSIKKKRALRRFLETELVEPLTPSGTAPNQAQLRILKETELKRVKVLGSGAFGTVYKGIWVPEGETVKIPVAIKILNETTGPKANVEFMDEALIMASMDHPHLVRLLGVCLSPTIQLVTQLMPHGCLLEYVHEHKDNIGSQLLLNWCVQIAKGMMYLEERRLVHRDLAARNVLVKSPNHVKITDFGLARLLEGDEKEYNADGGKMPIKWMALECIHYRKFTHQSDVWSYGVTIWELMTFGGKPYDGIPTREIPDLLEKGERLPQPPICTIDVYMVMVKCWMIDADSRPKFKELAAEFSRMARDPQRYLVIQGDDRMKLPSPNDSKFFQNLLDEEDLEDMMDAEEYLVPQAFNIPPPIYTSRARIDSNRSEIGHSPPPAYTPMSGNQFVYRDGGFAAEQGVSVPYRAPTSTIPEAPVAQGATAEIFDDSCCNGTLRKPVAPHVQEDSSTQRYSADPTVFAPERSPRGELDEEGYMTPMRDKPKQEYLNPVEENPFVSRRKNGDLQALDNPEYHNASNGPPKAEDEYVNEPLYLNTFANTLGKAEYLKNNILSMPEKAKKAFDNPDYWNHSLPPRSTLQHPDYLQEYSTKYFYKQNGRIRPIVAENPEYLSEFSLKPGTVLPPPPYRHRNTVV
Chain of Epidermal growth factor receptor (P00533 whole entry): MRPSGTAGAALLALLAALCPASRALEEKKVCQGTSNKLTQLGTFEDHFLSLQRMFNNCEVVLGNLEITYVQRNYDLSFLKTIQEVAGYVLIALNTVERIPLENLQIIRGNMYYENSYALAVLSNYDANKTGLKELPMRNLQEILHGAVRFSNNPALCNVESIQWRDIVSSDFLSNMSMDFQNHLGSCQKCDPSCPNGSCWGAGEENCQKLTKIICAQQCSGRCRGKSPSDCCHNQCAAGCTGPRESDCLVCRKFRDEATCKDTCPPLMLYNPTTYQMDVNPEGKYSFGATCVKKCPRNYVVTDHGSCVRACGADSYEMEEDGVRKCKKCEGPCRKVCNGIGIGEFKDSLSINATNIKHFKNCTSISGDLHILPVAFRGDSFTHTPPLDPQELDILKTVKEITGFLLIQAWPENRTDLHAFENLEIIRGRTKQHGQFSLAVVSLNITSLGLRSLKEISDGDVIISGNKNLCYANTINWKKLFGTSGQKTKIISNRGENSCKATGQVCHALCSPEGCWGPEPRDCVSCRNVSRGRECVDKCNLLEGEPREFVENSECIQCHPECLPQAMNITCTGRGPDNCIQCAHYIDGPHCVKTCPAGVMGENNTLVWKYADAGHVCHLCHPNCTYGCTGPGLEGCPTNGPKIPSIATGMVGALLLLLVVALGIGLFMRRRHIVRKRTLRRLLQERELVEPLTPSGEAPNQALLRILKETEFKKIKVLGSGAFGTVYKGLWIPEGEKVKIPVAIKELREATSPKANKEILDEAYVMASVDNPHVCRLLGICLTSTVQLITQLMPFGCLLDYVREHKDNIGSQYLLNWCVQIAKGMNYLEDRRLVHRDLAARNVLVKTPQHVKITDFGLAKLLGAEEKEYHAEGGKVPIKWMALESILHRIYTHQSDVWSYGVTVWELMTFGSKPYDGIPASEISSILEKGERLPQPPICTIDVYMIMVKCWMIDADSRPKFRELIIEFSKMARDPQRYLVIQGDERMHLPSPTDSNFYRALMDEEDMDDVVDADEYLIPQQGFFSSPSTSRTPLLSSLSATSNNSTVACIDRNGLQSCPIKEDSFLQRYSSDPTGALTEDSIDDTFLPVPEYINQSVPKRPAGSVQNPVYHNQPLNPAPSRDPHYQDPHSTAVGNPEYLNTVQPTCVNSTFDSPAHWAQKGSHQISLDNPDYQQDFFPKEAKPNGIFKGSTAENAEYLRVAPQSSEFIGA

In the case of `Nc1cnc(C#Cc2cc3ncnc(Nc4ccc(OCc5cccc(F)c5)c(Cl)c4)c3s2)cn1` [5-{2-[4-({3-chloro-4-[(3-fluorophenyl)methoxy]phenyl}amino)thieno[3,2-d]pyrimidin-6-yl]ethynyl}pyrazin-2-amine], the half-inhibitory concentration (IC50) came to 10 nM in experiment [1], 254 nM in experiment [2] and 47 nM in experiment [3].

For the compound `C[C@H](N)C#Cc1cc2c(Nc3ccc(OCc4cccc(F)c4)c(Cl)c3)ncnc2s1` [6-[(3S)-3-aminobut-1-yn-1-yl]-N-{3-chloro-4-[(3-fluorophenyl)methoxy]phenyl}thieno[2,3-d]pyrimidin-4-amine], the results for the IC50 in experiment [1], in experiment [2] and in experiment [3] were 44 nM, 638 nM and 69 nM, respectively.

As to `C#Cc1cc2c(Nc3ccc(OCc4cccc(F)c4)c(Cl)c3)ncnc2s1` [N-{3-chloro-4-[(3-fluorophenyl)methoxy]phenyl}-6-ethynylthieno[2,3-d]pyrimidin-4-amine], the values for the IC50 in experiment [1], in experiment [2] and in experiment [3] were 19 nM, 1720 nM and 71 nM, respectively.

Turning to `Nc1cnc(C#Cc2cc3c(Nc4ccc(OCc5cccc(F)c5)c(Cl)c4)ncnc3s2)cn1` [5-{2-[4-({3-chloro-4-[(3-fluorophenyl)methoxy]phenyl}amino)thieno[2,3-d]pyrimidin-6-yl]ethynyl}pyrazin-2-amine], the values for the 50% inhibitory concentration (IC50) in experiment [1], in experiment [2] and in experiment [3] were 52 nM, 1350 nM and 372 nM, respectively.

Regarding `Fc1cccc(COc2ccc(Nc3ncnc4sc(C#C[C@H]5CCCN5)cc34)cc2Cl)c1` [N-{3-chloro-4-[(3-fluorophenyl)methoxy]phenyl}-6-{2-[(2R)-pyrrolidin-2-yl]ethynyl}thieno[2,3-d]pyrimidin-4-amine], the IC50 in experiment [1] worked out at 54 nM; in experiment [2] it was 2300 nM; in experiment [3], 109 nM.

On to `Fc1cccc(COc2ccc(Nc3ncnc4cc(C#C[C@H]5CCCN5)sc34)cc2Cl)c1` [N-{3-chloro-4-[(3-fluorophenyl)methoxy]phenyl}-6-{2-[(2R)-pyrrolidin-2-yl]ethynyl}thieno[3,2-d]pyrimidin-4-amine], for which the values for the IC50 in experiment [1], in experiment [2] and in experiment [3] were 13 nM, 66 nM and 7 nM, respectively.

For the compound `C#Cc1cc2ncnc(Nc3ccc(OCc4cccc(F)c4)c(Cl)c3)c2s1` [N-{3-chloro-4-[(3-fluorophenyl)methoxy]phenyl}-6-ethynylthieno[3,2-d]pyrimidin-4-amine], the IC50 is 12 nM in experiment [1] and 24 nM in experiment [3].

In the case of `C[C@H](N)C#Cc1cc2ncnc(Nc3ccc(OCc4cccc(F)c4)c(Cl)c3)c2s1` [6-[(3S)-3-aminobut-1-yn-1-yl]-N-{3-chloro-4-[(3-fluorophenyl)methoxy]phenyl}thieno[3,2-d]pyrimidin-4-amine], the results for the IC50 in experiment [1], in experiment [2] and in experiment [3] were 27 nM, 412 nM and 64 nM, respectively.

Source of the values: BindingDB's records for doi:10.1073/pnas.0708281105 (Gsk, 2008).
